Results on 14 compounds are retold here after patent publication US8802737B2, “Method for improving tetracycline-resistance of Acinetobacter baumannii” (priority 2011, dated 2014).

In brackets after ≈: the same amount, converted by molar mass.

Common to all, as to type: cell-based, Acinetobacter baumannii
The subject of one assay is A. baumannii strain AB5. The experiment in a line: MIC by broth micro-dilution, clinical strain AB5. As to conditions: for MIC: Acinetobacter baumannii, read-out: susceptibilities to antibiotics (MICs); for MIC, ginger compound only: strain AB5, 10^5 cfu/mL, no tetracycline. The text has this:
(§1) Precisely, five strains of clinical A. baumannii, named AB1, AB2, AB4, AB5, AB6, are isolated from patients in Kaohsiung Medical University Hospital, 1600-bed tertiary referral medical center in Taiwan, wherein each of strains is from different clones by genotyping and collected from different samples, for example, sputum, wound pus, blood, pleural fluid, and bronchial washing. All of the five strains of A. baumannii are stored in trypticase soy broth (Difco Laboratories, Detroit, Mich.) with 20% glycerol at −80° C. until the following use.
(§2) Some of the antibiotics including ampicillin, cefazolin and cefmetazole have no MIC breakpoints according to CLSI.
(§3) In the present embodiment, 10^5 cfu/mL of each strain of A. baumannii are prepared, and the medication test of the present invention is carried out by respectively providing the medication of the present invention and the ginger compound only to each strain of A. baumannii. In this way, the antimicrobial activities of the medication of the present invention and of the ginger compound only are monitored and recorded respectively.
Background: In broth dilution the organism is exposed to a series of concentrations in liquid medium.

The next assay concerns A. baumannii strain AB2. Put plainly: MIC by broth micro-dilution, clinical strain AB2. As to conditions: for MIC: Acinetobacter baumannii, read-out: susceptibilities to antibiotics (MICs); for MIC, ginger compound only: strain AB2, 10^5 cfu/mL, no tetracycline.
Source text: as §1, §2, §3

The next assay has as its system A. baumannii strain AB6. Put plainly: MIC by broth micro-dilution, clinical strain AB6. To be noted: for MIC: Acinetobacter baumannii, read-out: susceptibilities to antibiotics (MICs); for MIC, ginger compound only: strain AB6, 10^5 cfu/mL, no tetracycline.
Source text: as §1, §2, §3

The next assay deals with A. baumannii strain AB1. Put plainly: MIC by broth micro-dilution, clinical strain AB1. As to conditions: for MIC: Acinetobacter baumannii, read-out: susceptibilities to antibiotics (MICs); for MIC, ginger compound only: strain AB1, 10^5 cfu/mL, no tetracycline.
Source text: as §1, §2, §3

The subject of a further assay is A. baumannii strain AB4. Put plainly: MIC by broth micro-dilution, clinical strain AB4. To be noted: for MIC: Acinetobacter baumannii, read-out: susceptibilities to antibiotics (MICs); for MIC, ginger compound only: strain AB4, 10^5 cfu/mL, no tetracycline.
Source text: as §1, §2, §3

With `CC1(C)S[C@@H]2[C@H](NC(=O)[C@H](N)c3ccccc3)C(=O)N2[C@H]1C(=O)O` [Ampicillin], the MIC was at least 512 µg/mL with A. baumannii strain AB5 (strain AB5, LB broth); at least 512 µg/mL with A. baumannii strain AB2 (strain AB2, LB broth); at least 512 µg/mL in the assay with A. baumannii strain AB6 (strain AB6, LB broth); at least 512 µg/mL with A. baumannii strain AB1 (strain AB1, LB broth); at least 512 µg/mL in the assay with A. baumannii strain AB4 (strain AB4, LB broth).

Take `Cc1nnc(SCC2=C(C(=O)O)N3C(=O)[C@@H](NC(=O)Cn4cnnn4)[C@H]3SC2)s1` [Cefazolin]: the MIC with A. baumannii strain AB5 (strain AB5, LB broth) was at least 64 µg/mL; in the assay on A. baumannii strain AB2 (strain AB2, LB broth), at least 64 µg/mL; in the assay on A. baumannii strain AB6 (strain AB6, LB broth) it was at least 64 µg/mL; with A. baumannii strain AB1 (strain AB1, LB broth), at least 64 µg/mL; in the assay on A. baumannii strain AB4 (strain AB4, LB broth), at least 64 µg/mL.

As to `CO/N=C(\C(=O)N[C@@H]1C(=O)N2C(C(=O)[O-])=C(C[N+]3(C)CCCC3)CS[C@H]12)c1csc(N)n1` [Cefepime], the MIC was at least 64 µg/mL in the assay with A. baumannii strain AB5 (strain AB5, LB broth); at least 64 µg/mL in the assay on A. baumannii strain AB2 (strain AB2, LB broth); at least 64 µg/mL with A. baumannii strain AB6 (strain AB6, LB broth); at least 64 µg/mL in the assay on A. baumannii strain AB1 (strain AB1, LB broth); at least 64 µg/mL in the assay with A. baumannii strain AB4 (strain AB4, LB broth).

For the compound `CO[C@@]1(NC(=O)CSCC#N)C(=O)N2C(C(=O)O)=C(CSc3nnnn3C)CS[C@@H]21` [Cefmetazole], the MIC with A. baumannii strain AB5 (strain AB5, LB broth) was at least 64 µg/mL; with A. baumannii strain AB2 (strain AB2, LB broth), at least 64 µg/mL; with A. baumannii strain AB6 (strain AB6, LB broth) it was at least 64 µg/mL; in the assay with A. baumannii strain AB1 (strain AB1, LB broth), at least 64 µg/mL; in the assay with A. baumannii strain AB4 (strain AB4, LB broth), at least 64 µg/mL.

`CC(C)(O/N=C(\C(=O)N[C@@H]1C(=O)N2C(C(=O)[O-])=C(C[n+]3ccccc3)CS[C@H]12)c1csc(N)n1)C(=O)O` [Ceftazidime]: the MIC is at least 64 µg/mL in the assay on A. baumannii strain AB5 (strain AB5, LB broth); at least 64 µg/mL in the assay with A. baumannii strain AB2 (strain AB2, LB broth); at least 64 µg/mL in the assay with A. baumannii strain AB6 (strain AB6, LB broth); at least 64 µg/mL in the assay on A. baumannii strain AB1 (strain AB1, LB broth); at least 64 µg/mL in the assay with A. baumannii strain AB4 (strain AB4, LB broth).

For `CO/N=C(\C(=O)N[C@@H]1C(=O)N2C(C(=O)O)=C(CSc3nc(=O)c(=O)[nH]n3C)CS[C@H]12)c1csc(N)n1` [Ceftriaxone], the MIC with A. baumannii strain AB5 (strain AB5, LB broth) is at least 64 µg/mL; with A. baumannii strain AB2 (strain AB2, LB broth), at least 64 µg/mL; in the assay with A. baumannii strain AB6 (strain AB6, LB broth) it was at least 64 µg/mL; in the assay on A. baumannii strain AB1 (strain AB1, LB broth), at least 64 µg/mL; in the assay with A. baumannii strain AB4 (strain AB4, LB broth), at least 64 µg/mL.

Consider `C[C@@H](O)[C@H]1C(=O)N2C(C(=O)O)=C(S[C@@H]3CN[C@H](C(=O)N(C)C)C3)[C@H](C)[C@H]12` [Meropenem], for which the MIC in the assay with A. baumannii strain AB5 (strain AB5, LB broth) was at least 16 µg/mL; with A. baumannii strain AB2 (strain AB2, LB broth), at least 16 µg/mL; with A. baumannii strain AB6 (strain AB6, LB broth), at least 16 µg/mL; with A. baumannii strain AB1 (strain AB1, LB broth), at least 16 µg/mL; with A. baumannii strain AB4 (strain AB4, LB broth) it was at least 16 µg/mL.

As to `CCN1CCN(C(=O)N[C@@H](C(=O)N[C@@H]2C(=O)N3[C@@H]2SC(C)(C)[C@@H]3C(=O)O)c2ccccc2)C(=O)C1=O` [Piperacillin], the MIC in the assay with A. baumannii strain AB5 (strain AB5, LB broth) was at least 128 µg/mL; in the assay with A. baumannii strain AB2 (strain AB2, LB broth) it was at least 128 µg/mL; with A. baumannii strain AB6 (strain AB6, LB broth), at least 128 µg/mL; with A. baumannii strain AB1 (strain AB1, LB broth), at least 128 µg/mL; in the assay on A. baumannii strain AB4 (strain AB4, LB broth), at least 128 µg/mL.

As for `CN(C)[C@@H]1C(O)=C(C(N)=O)C(=O)[C@@]2(O)C(O)=C3C(=O)c4c(O)cccc4[C@@](C)(O)[C@H]3C[C@@H]12` [Tetracycline], the MIC in the assay with A. baumannii strain AB5 (strain AB5, LB broth) was at least 512 µg/mL; in the assay on A. baumannii strain AB2 (strain AB2, LB broth) it was at least 512 µg/mL; with A. baumannii strain AB6 (strain AB6, LB broth), at least 512 µg/mL; in the assay with A. baumannii strain AB1 (strain AB1, LB broth), 32 µg/mL (≈ 72 µM); with A. baumannii strain AB4 (strain AB4, LB broth), at least 512 µg/mL.

On to `CCCCCC(=O)CC(=O)/C=C/c1ccc(O)c(OC)c1` [[6]-dehydrogingerdione], for which the “MIC, ginger compound only” value against A. baumannii strain AB5 worked out at 178.5 µM (≈ 51.8 µg/mL); with A. baumannii strain AB2 it was 166.2 µM (≈ 48.3 µg/mL); in the assay with A. baumannii strain AB6 it was 207.1 µM (≈ 60.1 µg/mL); against A. baumannii strain AB1 it was 198.1 µM (≈ 57.5 µg/mL); against A. baumannii strain AB4 it was 137.6 µM (≈ 40 µg/mL).

With `CCCCC[C@H](O)CC(=O)CCc1ccc(O)c(OC)c1` [[6]-gingerol], the “MIC, ginger compound only” value against A. baumannii strain AB5 amounted to 277.3 µM (≈ 81.6 µg/mL); against A. baumannii strain AB2, 226.8 µM (≈ 66.8 µg/mL); against A. baumannii strain AB6, 275.6 µM (≈ 81.1 µg/mL); in the assay with A. baumannii strain AB1, 226.4 µM (≈ 66.7 µg/mL); in the assay on A. baumannii strain AB4 it was 297.1 µM (≈ 87.5 µg/mL).

As for `CCCCC/C=C/C(=O)CCc1ccc(O)c(OC)c1` [[6]-shogaol], the “MIC, ginger compound only” value against A. baumannii strain AB5 was determined as 261.3 µM (≈ 72.2 µg/mL); against A. baumannii strain AB2, 274.0 µM (≈ 75.7 µg/mL); against A. baumannii strain AB6 it was 347.2 µM (≈ 96 µg/mL); with A. baumannii strain AB1, 208.1 µM (≈ 57.5 µg/mL); in the assay with A. baumannii strain AB4, 279.7 µM (≈ 77.3 µg/mL).

Regarding `CCCCCCCCC[C@H](O)CC(=O)CCc1ccc(O)c(OC)c1` [[10]-gingerol], the “MIC, ginger compound only” value against A. baumannii strain AB5 was 207.5 µM (≈ 72.7 µg/mL); in the assay with A. baumannii strain AB2, 162.3 µM (≈ 56.9 µg/mL); in the assay with A. baumannii strain AB6, 198.1 µM (≈ 69.4 µg/mL); against A. baumannii strain AB1, 144.6 µM (≈ 50.7 µg/mL); in the assay with A. baumannii strain AB4, 196.0 µM (≈ 68.7 µg/mL).

Turning to Gentamicin, the “susceptibilities to antibiotics (MICs)” value is recorded as “≧16 μg/ml” in the assay on A. baumannii strain AB5 (strain AB5, LB broth); “≧16 μg/ml” in the assay with A. baumannii strain AB2 (strain AB2, LB broth); “≧16 μg/ml” in the assay with A. baumannii strain AB6 (strain AB6, LB broth); “≧16 μg/ml” in the assay with A. baumannii strain AB1 (strain AB1, LB broth); “≧16 μg/ml” in the assay with A. baumannii strain AB4 (strain AB4, LB broth).
